# In publication PMC7961380, “A Systematic Study of the In Vitro Pharmacokinetics and Estimated Human In Vivo Clearance of Indole and Indazole-3-Carboxamide Synthetic Cannabinoid Receptor Agonists Detected on the Illicit Drug Market” (Molecules, 2021):
# Tests used:
# [1] = HLM, ref 14 (THJ-018, THJ-2201), 15 (NNEI, MN-18), 106 (NM-2201), 107 (BIM-2201), 95 (Cumyl-PICA, 5F-Cumyl-PICA), 108 (STS-135), 16 (AB-PINACA, 5F-AB-PINACA), 54 (5F-MDMB-PINACA), 109 (5F-APP-PICA, 5F-APP-PINACA, […], 69 (AB-FUBINACA), 17 (ADB-FUBINACA), 97 (FDU-PB-22, FUB-PB-22), cited from earlier work
# [2] = tested on: pooled human cryopreserved hepatocytes (pHHeps); assay: Metabolic stability, pooled human cryopreserved hepatocyte incubations
# [3] = Metabolic stability, pooled human liver microsome incubations; conditions: for % parent compound remaining, Average / Intrinsic clearance, CLint / Microsomal Intrinsic Clearance, CLint micr: pHLM
# Procedure: Total incubation volume was 500 µL. Procedure: Test compound working solutions (50 µM in potassium phosphate buffer (pH 7.4)) were prepared (<1% DMSO). pHLM were thawed and diluted in potassium phosphate buffer (pH 7.4). […] Reactions were quenched in 200 µL ACN spiked with donepezil (IS, 50 ng mL^−1). […] Samples were analysed by UPLC-MS/MS in a 96 deep-well 2 mL plate. Each SCRA was incubated at least in triplicate but additional incubations were carried out across a number of analytical batches, giving greater replication and a greater understanding of system variability. Microsomal scaling factors used for human liver microsome incubations in the literature vary. Intrinsic clearance and predicted in vivo clearance rates calculated using alternative scaling factors found in the literature is provided in Section S6 of the supplementary information, to aid comparison of data between publications.
# Equations used for in vitro intrinsic clearance calculation and human in vivo clearance […]
# The equations used for in vitro intrinsic clearance calculation and human in vivo clearance estimation […]
# Microsomal clearance (HLM incubations) in mL min-1 mg microsomal protein-1 [3]
# Intrinsic clearance (whole-liver dimensions) (HLM incubations) in mL min-1 kg-1 [3] CL = k x V x [Liver](g) x SF Eqn. 7 […]
# mg g microsomal protein-1 [7]
# Intrinsic clearance (whole-liver dimensions) (HHep incubations) in mL min-1 kg-1 [4] CL = k x V x hepatocytes/g liver x [Liver](g) Eqn. 8 […]
# Where: hepatocytes/g liver = 107x10^6 cells/g liver
# Hepatic clearance in mL min-1 kg-1 [3]
# […] Eqn. 9
# Where: Q = hepatic blood flow, 21 mL min-1 kg-1 [9]; fu = fraction unbound (plasma); CLint = […]
# Estimated human hepatic extraction ratio [5]
# Intrinsic clearance data – pooled human liver microsome incubations […]
# table S4-28. Intrinsic clearance and predicted in vivo data calculated using alternative microsomal scaling factors found in the literature – 32 [10] and 45 [11] mg microsomal protein per gram liver – are provided in tables S29 and S30, respectively.
compound,measurement,setting,value
NC(=O)[C@H](Cc1ccccc1)NC(=O)c1cn(CCCCCF)c2ccccc12 [Compound 5F-APP-PICA],CLint micr,[1]; 73 (5F-AMB-PINACA),46 µL/min/mg
same,t1/2,"[1]; 57 (AMB-4en-PICA), 73 (AMB-PINACA, 5F-AMB-PINACA)",15.1 min
CC(C)[C@@H](NC(=O)c1nn(CC2CCCCC2)c2ccccc12)C(N)=O [(R)-AB-[…] (11)] [N-[1-amino-3-methyl-1-oxobutan-2-yl]-1-(cyclohexylmethyl)-1H-indazole-3-carboxamide],T1/2,"[2]; pHHeps 0.25 million cells mL^−1, 0.5 µM, 37 °C, n ≥ 3 ± SD",38 ± 8.7 min
same,"% parent compound remaining, Average","[2]; pHHeps, 3 min, […]",91.3%
same,"% parent compound remaining, Average","[2]; pHHeps, 6 min, […]",89.8%
same,"% parent compound remaining, Average","[2]; pHHeps, 9 min, […]",88.6%
same,"% parent compound remaining, Average","[2]; pHHeps, 15 min, […]",86.6%
same,"% parent compound remaining, Average","[2]; pHHeps, 30 min, […]",73.0%
same,"% parent compound remaining, Average","[2]; pHHeps, 45 min, […]",75.2%
same,"% parent compound remaining, Average","[2]; pHHeps, 60 min, […]",76.2%
same,"Intrinsic clearance, CLint","[2]; pHHeps, alternative hepatocyte cell density 99x10^6 hepatocytes per gram liver",197 ± 50.3 mL/min/kg
same,T1/2,"[3]; pHLM 0.5 mg mL^−1, 0.5 µM, NADPH, 37 °C, n ≥ 3 ± SD",43 ± 5.0 min
same,"% parent compound remaining, Average","[3]; 3 min, […]",84.0%
same,"% parent compound remaining, Average","[3]; 6 min, […]",84.4%
same,"% parent compound remaining, Average","[3]; 9 min, […]",82.1%
same,"% parent compound remaining, Average","[3]; 15 min, […]",73.6%
same,"% parent compound remaining, Average","[3]; 30 min, […]",59.0%
same,"Intrinsic clearance, CLint",[3]; alternative microsomal scaling factor 32 mg microsomal protein per gram liver,26.9 mL/min/kg
same,"Intrinsic clearance, CLint",[3]; alternative microsomal scaling factor 45 mg microsomal protein per gram liver,37.8 ± 4.19 mL/min/kg
same,"Microsomal Intrinsic Clearance, CLint micr",[3]; n ≥ 3 ± SD,0.033 ± 0.004 mL min^−1 mg Microsomal Protein^−1
"COC(=O)C(NC(=O)c1nn(Cc2ccc(F)cc2)c2ccccc12)C(C)C (stereo in doubt) [(R)-AMB-FUBINACA (1), methyl [1-(4-fluorobenzyl)-1H-indazole-3-carbonyl]valinate]","% parent compound remaining, Average","[2]; pHHeps, 3 min",41.1%
same,"% parent compound remaining, Average","[2]; pHHeps, 6 min",22.5%
same,"% parent compound remaining, Average","[2]; pHHeps, 9 min",21.4%
same,"% parent compound remaining, Average","[2]; pHHeps, 15 min",12.3%
same,"% parent compound remaining, Average","[2]; pHHeps, 30 min",2.7%
same,"% parent compound remaining, Average","[2]; pHHeps, 45 min",0.9%
same,"% parent compound remaining, Average","[2]; pHHeps, 60 min",0.8%
same,"% parent compound remaining, Average",[3]; 3 min,57.2%
same,"% parent compound remaining, Average",[3]; 6 min,46.7%
same,"% parent compound remaining, Average",[3]; 9 min,34.5%
same,"% parent compound remaining, Average",[3]; 15 min,20.5%
same,"% parent compound remaining, Average",[3]; 30 min,6.8%
same,"Microsomal Intrinsic Clearance, CLint micr",[3]; n ≥ 3 ± SD,0.237 ± 0.020 mL min^−1 mg Microsomal Protein^−1
"O=c1ccc2ccc(O)cc2o1 [7-hydroxycoumarin, reference compound]",intrinsic clearance rate,"[2]; pHHeps positive control, range over batches",46 to 238 min⁻¹ kg⁻¹
same,"% parent compound remaining, Average","[2]; pHHeps, 3 min",98.6%
same,"% parent compound remaining, Average","[2]; pHHeps, 6 min",97.5%
same,"% parent compound remaining, Average","[2]; pHHeps, 9 min",95.7%
same,"% parent compound remaining, Average","[2]; pHHeps, 15 min",90.8%
same,"% parent compound remaining, Average","[2]; pHHeps, 30 min",75.8%
same,"% parent compound remaining, Average","[2]; pHHeps, 45 min",67.2%
same,"% parent compound remaining, Average","[2]; pHHeps, 60 min",55.8%
